Test results from ChEMBL document CHEMBL6120986, “In silico inspired design of urea noscapine congeners as anticancer agents: Chemical synthesis and experimental evaluation using breast cancer cells and a xenograft mouse model” (Eur J Med Chem, 2025).

What was measured:
[1] = Cytotoxicty against HEK cells incubated for 72 hrs by SRB assay; assay type: toxicity, cell-based; settings: human
MDA-MB-231 = experiment: Antiproliferative activity against human MDA-MB-231 cells assessed as inhibition of cell proliferation incubated for 72 hrs by SRB assay; assay type: functional, cell-based; settings: MDA-MB-231, 72 h
MCF7 = experiment: Antiproliferative activity against human MCF7 cells assessed as inhibition of cell proliferation incubated for 72 hrs by SRB assay; assay type: functional, cell-based; settings: MCF7, 72 h

Row | Compound | IC50 at 72 h [1] | IC50 (MDA-MB-231) | IC50 (MCF7)
1 | COc1ccc2c(c1OC)C(=O)O[C@@H]2[C@H]1c2c(cc3c(c2OC)OCO3)CCN1C [NOSCAPINE] | 229 µM | 54 µM | 39.7 µM
2 | COc1ccc2c(c1OC)C(=O)O[C@@H]2[C@H]1c2c(c(NC(=O)Nc3cccc(C(C)=O)c3)c3c(c2OC)OCO3)CCN1C | 306 µM | 33.2 µM | 29.5 µM
